Where “and” joins values, the source holds several entries; their conditions need not be identical. Identical values can stand only once. Inconclusive results and toxic doses are left out.
Test system: BDF1 mice, P388 leukemia ip, median survival T/C
Assay: NCI In Vivo Anticancer Drug Screen. Data for tumor model P388 Leukemia (intraperitoneal) in B6D2F1 (BDF1) mice
Conditions: endpoint: median survival time, higher = longer survival
Procedure, shortened: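 Antitumour effect was judged in vivo: survival in drug-treated mice, normalised to that of vehicle-dosed controls, gives the reported T/C.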

[1] = dose: 100.0 mg/kg/injection, schedule: Q01DX009 (ip), vehicle: Klucel (hydroxypropylcellulose) (HPC)
[2] = dose: 100.0 mg/kg/injection, schedule: Q04DX003 (ip), vehicle: Klucel (hydroxypropylcellulose) (HPC)
[3] = dose: 200.0 mg/kg/injection, schedule: Q01DX009 (ip), vehicle: Klucel (hydroxypropylcellulose) (HPC)
[4] = dose: 200.0 mg/kg/injection, schedule: Q04DX003 (ip), vehicle: Klucel (hydroxypropylcellulose) (HPC)
[5] = dose: 3.13 mg/kg/injection, schedule: Q01DX009 (ip), vehicle: saline with Tween-80
[6] = dose: 6.25 mg/kg/injection, schedule: Q01DX009 (ip), vehicle: saline with Tween-80
[7] = dose: 50.0 mg/kg/injection, schedule: Q01DX009 (ip), vehicle: saline with Tween-80
[8] = dose: 200.0 mg/kg/injection, schedule: Q01DX009 (ip), vehicle: saline with Tween-80
[9] = dose: 100.0 mg/kg/injection, schedule: Q01DX009 (ip), vehicle: saline with Tween-80
[10] = dose: 12.5 mg/kg/injection, schedule: Q01DX009 (ip), vehicle: saline with Tween-80
[11] = dose: 25.0 mg/kg/injection, schedule: Q01DX009 (ip), vehicle: saline with Tween-80
[12] = dose: 50.0 mg/kg/injection, schedule: Q01DX005 (ip), vehicle: saline with Tween-80
[13] = dose: 100.0 mg/kg/injection, schedule: Q01DX005 (ip), vehicle: saline with Tween-80
[14] = dose: 25.0 mg/kg/injection, schedule: Q01DX009 (ip), vehicle: saline
[15] = dose: 50.0 mg/kg/injection, schedule: Q01DX009 (ip), vehicle: saline
[16] = dose: 100.0 mg/kg/injection, schedule: Q01DX009 (ip), vehicle: saline

For `COc1ccc(CNc2ncccn2)cc1`, the T/C (dose: 25.0 mg/kg/injection, schedule: Q01DX009 (ip), vehicle: Klucel (hydroxypropylcellulose) (HPC)) was 95 % of control, the T/C (dose: 50.0 mg/kg/injection, schedule: Q01DX009 (ip), vehicle: Klucel (hydroxypropylcellulose) (HPC)) was 100 % of control and the T/C [1] was 104 % of control. For the same compound, the T/C [2] was 88 % of control, the T/C [3] was 89 % of control and the T/C [4] was 96 % of control.
For `CN(c1ccccc1)c1c2c(oc(=O)c1Cl)-c1ccccc1SC2`, the T/C (dose: 1.56 mg/kg/injection, schedule: Q01DX009 (ip), vehicle: saline with Tween-80) was 101 % of control, the T/C [5] was 97 % of control and the T/C [6] was 91 % of control.
For `O=C(O)COc1ccc(Cl)cc1Cl`, the T/C [7] was 118 % of control and the T/C [8] was 90 % of control.
For `Cc1ccc(C(Br)C2=CC(C)(C)c3ccccc3C2=O)cc1` (stereo unspecified), the T/C [1] was 118 % of control, the T/C [2] was 95 % of control and the T/C [3] was 90 % of control and 95 % of control. The T/C [4] was 113 % of control, the T/C (dose: 300.0 mg/kg/injection, schedule: Q01DX009 (ip), vehicle: Klucel (hydroxypropylcellulose) (HPC)) was 113 % of control and the T/C (dose: 400.0 mg/kg/injection, schedule: Q01DX009 (ip), vehicle: Klucel (hydroxypropylcellulose) (HPC)) was 100 % of control. The T/C (dose: 400.0 mg/kg/injection, schedule: Q04DX003 (ip), vehicle: Klucel (hydroxypropylcellulose) (HPC)) was 113 % of control.
For `NNc1nncn2c1cc1ccccc12`, the T/C [7] was 86 % of control and the T/C [9] was 107 % of control.
With `O=C1N/C(=N\c2nc3ccccc3s2)c2ccccc21` the T/C [5] was 90 % of control, the T/C [6] was 92 % of control and the T/C [10] was 92 % of control.
`COC1C(O)CC(=O)OC(C)C/C=C/C=C/C(OC2CCC(N(C)C)C(C)O2)C(C)CC(CC=O)C1OC1OC(C)C(OC2CC(C)(O)C(O)C(C)O2)C(N(C)C)C1O` (stereo unspecified) was tested, and the T/C [6] was 102 % of control, the T/C [10] was 94 % of control and the T/C [11] was 100 % of control.
For `Cc1ccc(C)c(-n2c(-c3ccc(Br)cc3)csc2=NC(=O)c2ccccc2F)c1`, the T/C [9] was 110 % of control, the T/C [8] was 100 % of control and the T/C (dose: 400.0 mg/kg/injection, schedule: Q01DX009 (ip), vehicle: saline with Tween-80) was 115 % of control.
`O=C(CN1CCOCC1)Nc1nc(-c2ccc(Cl)cc2)cs1` was tested, and the T/C [12] was 110 % of control and the T/C [13] was 91 % of control.
For `Cc1ccc(S)c(S)c1`, the T/C (dose: 3.12 mg/kg/injection, schedule: Q01DX009 (ip), vehicle: saline) was 97 % of control, the T/C (dose: 6.25 mg/kg/injection, schedule: Q01DX009 (ip), vehicle: saline) was 103 % of control and the T/C (dose: 12.5 mg/kg/injection, schedule: Q01DX009 (ip), vehicle: saline) was 103 % of control. The T/C [14] was 112 % of control.
In the case of `NC(=O)c1cc(=S)[nH]c2nc(Cl)nc(N)c12`, the T/C (dose: 100.0 mg/kg/injection, schedule: Q04DX002 (ip), vehicle: saline with Tween-80) is reported as 120 % of control.
`CC(C)(C)NC(=O)NCc1cccnc1` was tested, and the T/C (dose: 100.0 mg/kg/injection, schedule: Q04DX003 (ip), vehicle: saline with Tween-80) was 91 % of control, the T/C (dose: 200.0 mg/kg/injection, schedule: Q04DX003 (ip), vehicle: saline with Tween-80) was 95 % of control and the T/C (dose: 400.0 mg/kg/injection, schedule: Q04DX003 (ip), vehicle: saline with Tween-80) was 100 % of control.
With `COC1=C2CCCCC2=[N+]2CCc3ccccc3C2C1` (stereo unspecified) the T/C (dose: 25.0 mg/kg/injection, schedule: Q01DX001 (ip), vehicle: saline sonified) was 100 % of control, the T/C (dose: 50.0 mg/kg/injection, schedule: Q01DX001 (ip), vehicle: saline sonified) was 95 % of control and the T/C (dose: 100.0 mg/kg/injection, schedule: Q01DX001 (ip), vehicle: saline sonified) was 95 % of control.
In the case of `CCSc1ncnc2c1ncn2CN1CCOCC1`, the T/C [11] is reported as 86 % of control, the T/C [7] is reported as 95 % of control and the T/C [9] is reported as 168 % of control. The T/C (dose: 150.0 mg/kg/injection, schedule: Q01DX009 (ip), vehicle: saline) was 100 % of control and the T/C (dose: 330.0 mg/kg/injection, schedule: Q01DX009 (ip), vehicle: saline) was 110 % of control.
With `COc1ccc(CC2C(=O)NC(C)C(=O)N(C)C3C(=O)N(C)C(Cc4ccc(O)c(c4)Oc4ccc(cc4)C3O)C(=O)NC(C)C(=O)NC(C)C(=O)N2C)cc1` (stereo unspecified) the T/C (dose: 0.11 mg/kg/injection, schedule: Q01DX009 (ip), vehicle: alcohol) was 150 % of control, the T/C (dose: 0.11 mg/kg/injection, schedule: Q01DX009 (ip), vehicle: saline) was 164 % of control and the T/C (dose: 0.16 mg/kg/injection, schedule: Q01DX009 (ip), vehicle: alcohol) was 158 % of control. For the same compound, the T/C (dose: 0.25 mg/kg/injection, schedule: Q01DX009 (ip), vehicle: alcohol) was 188 % of control, the T/C (dose: 1.0 mg/kg/injection, schedule: Q01DX009 (ip), vehicle: distilled water + Tween-80) was 173 % of control and the T/C (dose: 10.0 micrograms/kg/injection, schedule: Q01DX009 (ip), vehicle: alcohol) was 110 % of control. For the same compound, the T/C (dose: 518.0 micrograms/kg/injection, schedule: Q04DX003 (ip), vehicle: other) was 163 % of control, the T/C (dose: 864.0 micrograms/kg/injection, schedule: Q04DX003 (ip), vehicle: other) was 184 % of control and the T/C (dose: 1440.0 micrograms/kg/injection, schedule: Q04DX003 (ip), vehicle: other) was 175 % of control. The T/C (dose: 2400.0 micrograms/kg/injection, schedule: Q04DX003 (ip), vehicle: other) was 181 % of control.
For `CCCCOC(=O)C(N)Cc1ccc(OC)c(N(CCCl)CCCl)c1` (stereo unspecified), the T/C (dose: 3.0 mg/kg/injection, schedule: Q04DX003 (ip), vehicle: saline) was 250 % of control and the T/C (dose: 6.0 mg/kg/injection, schedule: Q04DX003 (ip), vehicle: saline) was 108 % of control.
With `CCCCCCCCCCCCCSCCCCCCCCSCCCCCCCCCCCCC` the T/C (dose: 100.0 mg/kg/injection, schedule: Q01DX001 (ip), vehicle: saline with Tween-80) was 95 % of control, the T/C (dose: 200.0 mg/kg/injection, schedule: Q01DX001 (ip), vehicle: saline with Tween-80) was 90 % of control and the T/C (dose: 400.0 mg/kg/injection, schedule: Q01DX001 (ip), vehicle: saline with Tween-80) was 100 % of control.
`O=C(Nc1ccc(-c2cn3ccccc3n2)cc1)c1cc(Br)ccc1O` was tested, and the T/C [10] was 100 % of control, the T/C [11] was 91 % of control and the T/C [7] was 107 % of control.
For `N#CCOC(=O)C1(NC(=O)c2ccccc2)CC1c1ccccc1` (stereo unspecified), the T/C (dose: 25.0 mg/kg/injection, schedule: Q01DX005 (ip), vehicle: saline with Tween-80) was 95 % of control, the T/C [12] was 90 % of control and the T/C [13] was 92 % of control.
For `CC(C)(O)C(NC(N)=O)c1ccccc1` (stereo unspecified), the T/C [7] was 104 % of control, the T/C [9] was 101 % of control and the T/C [8] was 100 % of control.
In the case of `O=C(CCN1CCCCC1)c1ccc(C(F)(F)F)cc1`, the T/C (dose: 0.39 mg/kg/injection, schedule: Q01DX009 (ip), vehicle: saline) is reported as 100 % of control and 116 % of control, the T/C (dose: 0.78 mg/kg/injection, schedule: Q01DX009 (ip), vehicle: saline) is reported as 102 % of control and 116 % of control and the T/C (dose: 1.56 mg/kg/injection, schedule: Q01DX009 (ip), vehicle: saline) is reported as 100 % of control. For the same compound, the T/C [6] was 99 % of control.
`CCOC(OC(C)=O)OC(C)=O` was tested, and the T/C (dose: 50.0 mg/kg/injection, schedule: Q01DX001 (ip), vehicle: saline) was 100 % of control, the T/C (dose: 100.0 mg/kg/injection, schedule: Q01DX001 (ip), vehicle: saline) was 115 % of control and the T/C (dose: 200.0 mg/kg/injection, schedule: Q01DX001 (ip), vehicle: saline) was 110 % of control.
For `O=C(O)c1cc(O)c(O)c(O)c1`, the T/C (dose: 1.25 mg/kg/injection, schedule: Q01DX009 (ip), vehicle: saline) was 90 % of control, the T/C (dose: 2.5 mg/kg/injection, schedule: Q01DX009 (ip), vehicle: saline) was 95 % of control and the T/C (dose: 5.0 mg/kg/injection, schedule: Q01DX009 (ip), vehicle: saline) was 95 % of control. The T/C (dose: 10.0 mg/kg/injection, schedule: Q01DX009 (ip), vehicle: saline) was 115 % of control, the T/C (dose: 10.0 mg/kg/injection, schedule: Q01DX010 (ip), vehicle: saline) was 110 % of control and the T/C (dose: 20.0 mg/kg/injection, schedule: Q01DX010 (ip), vehicle: saline) was 100 % of control. The T/C (dose: 40.0 mg/kg/injection, schedule: Q01DX010 (ip), vehicle: saline) was 90 % of control, the T/C [15] was 100 % of control and the T/C [16] was 100 % of control. The T/C (dose: 200.0 mg/kg/injection, schedule: Q01DX009 (ip), vehicle: saline) was 104 % of control.
`Cc1cccc(NC(=O)Nc2ccc(Oc3ccccc3Cl)c(S(=O)(=O)O)c2)c1` was tested, and the T/C [14] was 90 % of control, the T/C [15] was 90 % of control and the T/C [16] was 90 % of control.
